Data on two compounds can be found in patent US20050085531A1, “Thiophene-based compounds exhibiting ATP-utilizing enzyme inhibitory activity, and compositions, and uses thereof” (priority 2003, published 2005).

For the assay, the target named is AKT1 (Homo sapiens, UniProt P31749). Put plainly: HTS off-chip mobility-shift assay, typical screen parameters for AKT1. The class given is biochemical. To be noted: read-out: inhibition (control inhibitor). An excerpt:
The following procedures describe the reagent and plate preparation for a HTS of an ATP-utilizing enzyme, such as a protein kinase, run in an off-chip mobility-shift assay format. The following provides an HTS protocol for running a protein kinase HTS screen on a Caliper HTS 250 microfluidics system. The following parameters are dependent on the protein kinase used and can be determined by one skilled in the art as part of a typical assay development process. For example, the peptide substrate used can be identified from the current literature, by screening a peptide library of potential protein kinase substrates, or by other applicable means accepted in the field.
The following table provides typical screen assay parameters appropriate for a Caliper HTS 250 microfluidics system used to assay AKT1. Parameters used to assay other protein kinases can be determined by one skilled in the art. […]
Assays to determine the kinase inhibitory activity of compounds of the present disclosure were performed using a Caliper HTS 250 microfluidics device, Greiner U-bottom assay plates, a Multidrop for transfer of reagents, and Biomek FX (AMNCBM03) software. […] The inhibition of the ATP-utilizing enzyme, such as a particular protein kinase, was determined by measuring the ratio of the peptide substrate to phosphorylated product for each well of the assay plate using the Caliper HTS 250 system.

Sequence of AKT1 (P31749 whole entry): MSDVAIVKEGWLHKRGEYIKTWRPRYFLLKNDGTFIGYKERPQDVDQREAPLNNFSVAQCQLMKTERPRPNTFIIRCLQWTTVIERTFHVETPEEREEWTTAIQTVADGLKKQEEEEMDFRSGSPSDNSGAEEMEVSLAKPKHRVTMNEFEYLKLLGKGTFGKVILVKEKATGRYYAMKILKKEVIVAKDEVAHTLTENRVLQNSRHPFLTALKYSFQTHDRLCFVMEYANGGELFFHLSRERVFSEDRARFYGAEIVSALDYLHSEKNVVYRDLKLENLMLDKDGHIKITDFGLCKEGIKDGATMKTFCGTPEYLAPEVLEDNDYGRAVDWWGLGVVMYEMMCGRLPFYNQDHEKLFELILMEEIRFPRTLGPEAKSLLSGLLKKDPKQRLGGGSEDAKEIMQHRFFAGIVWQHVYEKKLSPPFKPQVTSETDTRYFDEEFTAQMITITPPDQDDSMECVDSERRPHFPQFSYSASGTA

Consider `O=C(O)CN(CCN(CC(=O)O)CC(=O)O)CC(=O)O` [EDTA, ethylenediaminetetraacetic acid], for which the inhibition at 20000 µM (inhibitor concentration 20 mM, AKT1 screen) is 100%.

For `CN[C@@H]1C[C@H]2O[C@@](C)([C@@H]1OC)n1c3ccccc3c3c4c(c5c6ccccc6n2c5c31)C(=O)NC4` [Staurosporine], the inhibition at 0.138 µM was determined as 70%.
